Measurements: US10561672B2, “Stable fixed dose pharmaceutical composition comprising mometasone and olopatadine” (GLENMARK SPECIALTY S.A., priority 2013, dated 2020)

Columns and labels:
[1] = Clinical trial, single-dose cross-over: pharmacokinetics of mometasone furoate (Example 6); type: in vivo; conditions: single dose nasal spray, human subjects
Source text: (§1) The clinical trial was a randomized, single-center, single-dose, open-label, three-period, six-sequence, cross-over study to evaluate three treatments administered by nasal spray. […] The study consisted of a screening visit, 3 single-dose treatment periods with washout periods of 7 to 14 days between dosing in each treatment period, an early withdrawal visit if applicable, and a follow-up telephone call (or visit) 1 to 7 days after completing the third treatment period. A total of 30 subjects were randomized to 1 of 6 treatment sequences and received at least 1 dose of study drug. All 30 subjects were included in the safety analysis set and the pharmacokinetic subset. All but 2 subjects completed the study per protocol.

[2] = Clinical trial, single-dose cross-over: pharmacokinetics of olopatadine (Example 5); type: in vivo; conditions: single dose nasal spray, human subjects
Source text: as §1, with “as a” for “by”

Row | Compound | Quantifiable concentrations observed until the last time point [1] [h] | Quantifiable concentrations observed until the last time point [2] [h]
1 | C[C@@H]1C[C@H]2[C@@H]3CCC4=CC(=O)C=C[C@]4(C)[C@@]3(Cl)[C@@H](O)C[C@]2(C)[C@@]1(OC(=O)c1ccco1)C(=O)CCl [mometasone furoate] | 72 | –
2 | CN(C)CC/C=C1/c2ccccc2COc2ccc(CC(=O)O)cc21 [olopatadine] | – | 48
